Laboratory results taken from US20240000751A1, “STABLE ORAL FORMULATION CONTAINING 1-(3-CYANO-1-ISOPROPYL-INDOL-5-YL)PYRAZOLE-4-CARBOXYLIC ACID” (LG CHEM, LTD., priority 2020, published 2024).

Test: Stability of API and 1:1 API/excipient mixtures stored under accelerated conditions, residual assay of API by HPLC
Type: physicochemical
Conditions: mixture
Experimental: As disclosed in Table 1 below, after preparing a mixture by mixing API, 1-(3-cyano-1-isopropyl-indol-5-yl)pyrazol-4-carboxylic acid, with various types of excipients such as microcrystalline cellulose, the residual assay of API at the initial stage and after 1 month, 2 months, and 3 months storage, respectively, under accelerated conditions (40° C., 75% RH; relative humidity) were measured through the analysis method and process described below.
• HPLC analysis conditions are as follows: • Column: Inertsil ODS-2 (4.6×150 mm, 5 μm, GL Science) • Detector: 254 nm, UV • Flow Rate: […] • Injection Volume: […] • Column Temperature: 40° C. • Eluent • A: Acetonitril/Purified water/TFA(Trifluoroacetic acid)=40/60/0.1(v/v/v) • B: Acetonitril/Purified water/TFA=80/20/0.1(v/v/v)

SMILES: CC(C)n1cc(C#N)c2cc(-n3cc(C(=O)O)cn3)ccc21 [Comparative Example 1, 1-(3-cyano-1-isopropyl-indol-5-yl)pyrazol-4-carboxylic acid]
- residual assay of API, 3 Months (after 3 months storage under accelerated conditions (40° C., 75% RH)): 98.7%
- residual assay of API, Initial (initial stage, accelerated conditions (40° C., 75% RH)): 98.7%
